In ChEMBL document CHEMBL1201862, “PubChem BioAssay data set” (2004):
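Each compound was tested at five concentrations against cells in 96-well plates for 48 hours. Abbreviation: GI50, concentration required for 50% inhibition of growth.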 Calls of active or inactive are those of the source. No stated cut-off is given here; in the data, active = GI50 up to about 1.1 µM and inactive = higher.

Columns and labels:
Experiment in all cases: NCI tumour cell line growth inhibition, 48 h
[1] = test system: MDA-N
[2] = test system: RXF 393
[3] = test system: RPMI-8226
[4] = test system: OVCAR-8
[5] = test system: HCT-15
[6] = test system: OVCAR-3
[7] = test system: OVCAR-5
[8] = test system: MCF7
[9] = test system: NCI-H226
[10] = test system: HCC 2998
[11] = test system: SK-MEL-2
[12] = test system: M14
[13] = test system: HL-60
[14] = test system: Malme-3M
[15] = test system: NCI-H460
[16] = test system: TK-10
[17] = test system: UACC-257
[18] = test system: LOX IMVI
[19] = test system: 786-0
[20] = test system: A549

Row | Structure (SMILES) | GI50 [1] | GI50 [2] | GI50 [3] | GI50 [4] | GI50 [5] [µM] | GI50 [6] | GI50 [7] | GI50 [8] | GI50 [9] | GI50 [10] | GI50 [11] | GI50 [12] | GI50 [13] | GI50 [14] | GI50 [15] | GI50 [16] | GI50 [17] | GI50 [18] | GI50 [19] | GI50 [20]
1 | CC(C)c1ccc2c(c1)CCC1C(C)(CN)CCCC21C (stereo not given) | 1.51 µM (inactive) | 1.56 µM (inactive) | 0.653 µM (active) | 1.73 µM (inactive) | 1.54 | 1.7 µM (inactive) | 1.76 µM (inactive) | 1.44 µM (inactive) | 1.91 µM (inactive) | 0.0438 µM (active) | 1.73 µM (inactive) | 1.67 µM (inactive) | 1.31 µM (inactive) | 1.43 µM (inactive) | 1.22 µM (inactive) | 1.7 µM (inactive) | 1.69 µM (inactive) | 1.43 µM (inactive) | 1.56 µM (inactive) | 1.8 µM (inactive)
2 | COc1ccccc1Cn1c2c(c3c(C(=O)NCCN(C)C)c(O)ccc31)C(=O)c1ccccc1C2=O | 1.4 µM (inactive) | 1.07 µM (active) | 0.78 µM (active) | 2.14 µM (inactive) | 1.94 | 1.99 µM (inactive) | 1.94 µM (inactive) | 1.47 µM (inactive) | 10.4 µM (inactive) | 1.66 µM (inactive) | 1.69 µM (inactive) | 1.32 µM (inactive) | 1.01 µM (active) | 1.63 µM (inactive) | 2.09 µM (inactive) | 1.61 µM (inactive) | 1.79 µM (inactive) | 1.89 µM (inactive) | 0.409 µM (active) | 1.82 µM (inactive)
3 | CC(C)(C)OC(=O)NCC(c1c[nH]c2cc(Br)ccc12)c1c[nH]c2cc(Br)ccc12 | 18.5 µM (inactive) | 17.6 µM (inactive) | 32.7 µM (inactive) | 18.3 µM (inactive) | 15.1 | 15.7 µM (inactive) | 15.5 µM (inactive) | 18.6 µM (inactive) | 15.4 µM (inactive) | 18.9 µM (inactive) | 18.4 µM (inactive) | 18.7 µM (inactive) | 27.2 µM (inactive) | 17.2 µM (inactive) | 21.2 µM (inactive) | 19.7 µM (inactive) | 19.9 µM (inactive) | 17.5 µM (inactive) | 18.6 µM (inactive) | 20.1 µM (inactive)
4 | Cc1c(C)c2c(c(N)c1C#N)C(=O)N(OS(=O)(=O)c1ccccc1)C2=O | 29.8 µM (inactive) | 15.2 µM (inactive) | 15.1 µM (inactive) | 17.8 µM (inactive) | 20.9 | 22.2 µM (inactive) | > 100 µM (inactive) | 38 µM (inactive) | 18.5 µM (inactive) | 38.7 µM (inactive) | 49 µM (inactive) | 19.5 µM (inactive) | 30.1 µM (inactive) | 16.1 µM (inactive) | 37.5 µM (inactive) | 18 µM (inactive) | 24.4 µM (inactive) | 26.2 µM (inactive) | 16.4 µM (inactive) | 15.6 µM (inactive)
5 | COc1cc(C2S/C(=C/c3ccccc3)C(=O)N2c2ccc(Cl)cc2)cc(OC)c1OC (stereo not given) | 1.58 µM (inactive) | 40.6 µM (inactive) | 8.18 µM (inactive) | 22.1 µM (inactive) | 9.51 | 26.4 µM (inactive) | > 100 µM (inactive) | 3.09 µM (inactive) | > 89.1 µM (inactive) | 36.6 µM (inactive) | 7.98 µM (inactive) | 2 µM (inactive) | 23.2 µM (inactive) | 23.7 µM (inactive) |  | > 100 µM (inactive) | 34.2 µM (inactive) | 6.03 µM (inactive) | > 100 µM (inactive) | 24.4 µM (inactive)
6 | CCC[C@H](N[S+]([O-])c1ccc(C)cc1)C(C(=O)OCC)=C(c1ccccc1)c1ccccc1 (stereo not given in full) | 20.8 µM (inactive) | 14.5 µM (inactive) | 18.7 µM (inactive) | 27.4 µM (inactive) | 25.2 |  | 14.5 µM (inactive) | 16.6 µM (inactive) | 26.1 µM (inactive) | 3.13 µM (inactive) | 14.5 µM (inactive) | 22 µM (inactive) | 21.4 µM (inactive) | 17.4 µM (inactive) | 17 µM (inactive) | 28.6 µM (inactive) | 16.1 µM (inactive) | 18.1 µM (inactive) | 18.1 µM (inactive) | 21.5 µM (inactive)
7 | CC1CNC(c2ccc(-c3nc(-c4ccc(C5=NC(C)CN5)cc4)nc(N(C)C)n3)cc2)=N1 (stereo not given) | 1.85 µM (inactive) | 3.22 µM (inactive) | 3.78 µM (inactive) | 2.12 µM (inactive) | 16.6 | 1.79 µM (inactive) | 3.24 µM (inactive) | 1.42 µM (inactive) | 2.02 µM (inactive) | 1.83 µM (inactive) | 2.01 µM (inactive) | 3.21 µM (inactive) | 2.62 µM (inactive) | 3.08 µM (inactive) | 3.27 µM (inactive) | 3.78 µM (inactive) | 3.08 µM (inactive) | 1.41 µM (inactive) | 1.28 µM (inactive) | 3.02 µM (inactive)
8 | CC(=O)c1sc(=N)n(-c2c(C)cccc2C)c1C | > 100 µM (inactive) | > 100 µM (inactive) | > 100 µM (inactive) |  | > 100 | > 100 µM (inactive) | > 100 µM (inactive) | > 100 µM (inactive) | > 100 µM (inactive) | > 100 µM (inactive) | > 100 µM (inactive) | > 100 µM (inactive) | > 100 µM (inactive) | > 100 µM (inactive) | > 100 µM (inactive) | > 100 µM (inactive) |  | > 100 µM (inactive) | > 100 µM (inactive) | > 100 µM (inactive)
9 | O=[N+]([O-])c1ccccc1S(=O)(=O)N1CCCc2cc(Cl)ccc21 | 4.46 µM (inactive) | 13.8 µM (inactive) | 9.02 µM (inactive) | 88.9 µM (inactive) | 15.5 | 26.2 µM (inactive) | > 93.1 µM (inactive) | 28.2 µM (inactive) | > 100 µM (inactive) | 38 µM (inactive) | > 52.6 µM (inactive) | 46.5 µM (inactive) | 6.3 µM (inactive) | > 100 µM (inactive) | 18.6 µM (inactive) | > 100 µM (inactive) | 12.6 µM (inactive) | 24.3 µM (inactive) | > 85.1 µM (inactive) | 38.7 µM (inactive)
10 | CCCCC(=O)c1c(O)ccc2c(C)cc(=O)oc12 | > 100 µM (inactive) | 49.1 µM (inactive) | 52 µM (inactive) | > 100 µM (inactive) | 50.4 | > 100 µM (inactive) | > 100 µM (inactive) | 76.2 µM (inactive) | > 100 µM (inactive) | 45.8 µM (inactive) | 3.14 µM (inactive) | > 100 µM (inactive) | > 100 µM (inactive) | 39.9 µM (inactive) | 53.1 µM (inactive) | > 100 µM (inactive) | > 100 µM (inactive) | 93.8 µM (inactive) | > 100 µM (inactive) | 73.3 µM (inactive)
11 | COc1ccc(CCNCCCC2c3ccccc3-c3ccccc32)cc1OC | 16.7 µM (inactive) | 11.3 µM (inactive) | 6.3 µM (inactive) | 16.6 µM (inactive) | 14.8 | 16.7 µM (inactive) | 19.2 µM (inactive) | 6.7 µM (inactive) | 15.4 µM (inactive) | 2.06 µM (inactive) | 6.68 µM (inactive) | 4.8 µM (inactive) | 12.9 µM (inactive) | 13.6 µM (inactive) | 7.16 µM (inactive) | 14.4 µM (inactive) | 14.3 µM (inactive) | 14.2 µM (inactive) | 15 µM (inactive) | 16.1 µM (inactive)
12 | Cc1nc2c(O)cc3c4c(n(Cc5ccccc5)c3c2nc1C)C(=O)CCC4 | 45.9 µM (inactive) | 5.46 µM (inactive) | > 100 µM (inactive) | 12.2 µM (inactive) | > 100 | 28.2 µM (inactive) | > 100 µM (inactive) | 19.1 µM (inactive) | > 100 µM (inactive) | > 100 µM (inactive) | 10.1 µM (inactive) | 53.2 µM (inactive) | > 100 µM (inactive) | 27.8 µM (inactive) | 83 µM (inactive) | 34 µM (inactive) | > 100 µM (inactive) | 64.1 µM (inactive) | 15.1 µM (inactive) | 50.5 µM (inactive)
13 | COC(=O)[C@]1(c2cc3ccccc3n2S(=O)(=O)c2ccccc2)CC2CN(C(=O)OCc3ccccc3)C1C1OC(C)(C)OC21 (stereo not given in full) | > 100 µM (inactive) | > 100 µM (inactive) | 60.1 µM (inactive) | > 100 µM (inactive) | > 100 | > 100 µM (inactive) | > 100 µM (inactive) | > 100 µM (inactive) | 93.1 µM (inactive) | > 100 µM (inactive) | > 100 µM (inactive) | 80.5 µM (inactive) | > 100 µM (inactive) | 2.09 µM (inactive) | > 100 µM (inactive) | > 100 µM (inactive) | > 100 µM (inactive) | > 100 µM (inactive) | > 100 µM (inactive) | 23.9 µM (inactive)
14 | CNc1cccc(-c2cc(O)c3cc4c(cc3n2)OCO4)c1 | 0.0296 µM (active) | 0.213 µM (active) | 0.358 µM (active) | 0.409 µM (active) | 0.272 | 0.126 µM (active) | 1.79 µM (inactive) | 0.293 µM (active) | 0.404 µM (active) | 0.322 µM (active) | 0.385 µM (active) | 0.224 µM (active) | 0.198 µM (active) | 0.168 µM (active) | 0.436 µM (active) | 1.42 µM (inactive) |  | 0.372 µM (active) | 0.334 µM (active) | 0.664 µM (active)
